From US9387225B2, “Gold-platinum based bi-metallic nanocrystal suspensions, electrochemical manufacturing processes therefor and uses for the same” (GR INTELLECTUAL RESERVE, LLC, a Nevada LLC, priority 2011, dated 2016)
Like-named read-outs stand apart in the source and are kept apart here.

Legend:
HCT116 tumors [1] = assay: Xenograft cancer study in mice, HCT116, oral administration (Example 20d); format: in vivo, mouse
From the text: (§1) Female Balb/C, immunologically deficient recipient mice (6-8 weeks old) had tumors implanted therein. The Balb/C donor mice were used to grow HCT116 tumors, which tumors were excised therefrom and subsequently sectioned into small fragments about 2 mm^3 in size. The Balb/C recipient mice were given brief general anesthesia and then one HCT116 2 mm^3 tumor fragment from the donor mice was implanted into each of the left and right flank of the recipient mice using a trocar needle. Once the tumors in the recipient mice had reached a measurable size of about 4×4 mm, as measured by calipers placed against each mouse skin, the recipient mice were randomly placed into treatment groups, 8 per group and the oral treatment was started. 8 mice were in the positive control group (“Cisplatin”) and 8 mice were in the negative control group and received only water (“Control”). Treatment was given exclusively via the drinking bottle shared between the mice in each Treatment group. Cisplatin was given by intraperitoneal injection on day 0. Tumor size was assessed five times per week using a pair of calipers and mouse weight was also obtained by a scale, such measuring occurring until the mouse died (or was removed from the study) or the study was terminated as scheduled.
• Species: Mice • Strain: Balb/C immunodeficient mice • Source: Harlan • Gender and number: Female, 36 • Age: About 6-8 weeks old at the start of the study. • Identification: Each mouse was given a unique identity number. • Animal husbandry: On receipt, all animals were examined for external signs of ill-health and all unhealthy animals were excluded from further evaluation. Animals were housed in groups of three under specific pathogen free (spf) conditions, in a thermostatically monitored room (22±4° C.) in an animal unit. Animals were equilibrated under standard animal house conditions for at least 72 hours prior to use. The health status of the animals was monitored throughout this period and the suitability of each animal for experimental use was assessed prior to study start. • Housing Animals were housed in groups of 3 per cage in a controlled room, to ensure correct temperature, humidity and 12 hour light/dark cycle for the duration of the study. • Diet: Irradiated pellet diet and water was available ad libitum throughout the holding, acclimatisation and post-dose periods. Compound and Reagents • HCT 116 cell line (ATCC CCL-247). • Phosphate buffered saline (“PBS”). • Test compounds: Au—Pt bi-metallic nanocrystal suspensions. • Positive control compound: cisplatin. • Negative control compound: drinking water. Treatment Groups and Dosages • Negative Control Group 1: Days 0-21, given normal drinking water. • Positive Control Group 2: Days 0-21, given normal drinking water; and given a one-time cisplatin dose of 8 mg/kg by intraperitoneal injection (“IP”) on day 0. • Treatment Group 3-5: Days 0-21, given test compounds as their drinking water. Protocol A: Preparation and Growth of Donor Tumors
(§2) a.) Preparation of Tumor Cells • 1. Cells were grown in complete medium and all contaminants were excluded. • 2. When the cells were approximately 70-80% confluent, then approximately 3-4 hours before harvesting, the old cell growth medium was replaced with fresh cell growth medium to remove any dead and/or detached cells. • 3. […] The cells were then placed on a glass slide in the traditional manner and were counted using a hemocytometer. • 5. […]

HCT116 tumors [2] = format: in vivo
From the text: as §1
• Species: Mice • Strain: Balb/C immunodeficient mice • Source: Harlan • Gender and number: Female, 36 • Age: About 6-8 weeks old at the start of the study. • Identification: Each mouse was given a unique identity number. • Animal husbandry: On receipt, all animals were examined for external signs of ill-health and all unhealthy animals were excluded from further evaluation. Animals were housed in groups of three under specific pathogen free (spf) conditions, in a thermostatically monitored room (22±4° C.) in an animal unit. Animals were equilibrated under standard animal house conditions for at least 72 hours prior to use. The health status of the animals was monitored throughout this period and the suitability of each animal for experimental use was assessed prior to study start. • Housing Animals were housed in groups of 3 per cage in a controlled room, to ensure correct temperature, humidity and 12 hour light/dark cycle for the duration of the study. • Diet: Irradiated pellet diet and water was available ad libitum throughout the holding, acclimatisation and post-dose periods. Compound and Reagents • HCT 116 cell line (ATCC CCL-247). • Phosphate buffered saline (“PBS”). • Test compounds: gold nanocrystal suspension NE-28-10X (NE-28 produced equivalent to • NE10214 in Example 1) Concentrated 10×. • Positive control compound: cisplatin. • Negative control compound: drinking water. Treatment Groups and Dosages • Negative Control Group 1: Days 0-21, given normal drinking water. • Positive Control Group 2: Days 0-21, given normal drinking water; and given a one-time cisplatin dose of 8 mg/kg by intraperitoneal injection (“IP”) on day 0. • Treatment Group 3: Days 0-21, given test compounds as their drinking water. Protocol A: Preparation and Growth of Donor Tumors
as §2

H460 tumors = assay: Xenograft cancer study in mice, H460, oral administration (Example 20e); format: in vivo, mouse
From the text: Female Balb/C, immunologically deficient recipient mice (6-8 weeks old) had tumors implanted therein. The Balb/C donor mice were used to grow H460 tumors, which tumors were excised therefrom and subsequently sectioned into small fragments about 2 mm^3 in size. The Balb/C recipient mice were given brief general anesthesia and then one H4602 mm^3 tumor fragment from the donor mice was implanted into each of the left and right flank of the recipient mice using a trocar needle. Once the tumors in the recipient mice had reached a measurable size of about 4×4 mm, as measured by calipers placed against each mouse skin, the recipient mice were randomly placed into treatment groups, 8 per group and the oral treatment was started. 8 mice were in the positive control group (“Cisplatin”) and 8 mice were in the negative control group and received only water (“Control”). Treatment was given exclusively via the drinking bottle shared between the mice in each Treatment group. Cisplatin was given by intraperitoneal injection on day 0. Tumor size was assessed five times per week using a pair of calipers and mouse weight was also obtained by a scale, such measuring occurring until the mouse died (or was removed from the study) or the study was terminated as scheduled.
• Species: Mice • Strain: Balb/C immunodeficient mice • Source: Harlan • Gender and number: Female, 36 • Age: About 6-8 weeks old at the start of the study. • Identification: Each mouse was given a unique identity number. • Animal husbandry: On receipt, all animals were examined for external signs of ill-health and all unhealthy animals were excluded from further evaluation. Animals were housed in groups of three under specific pathogen free (spf) conditions, in a thermostatically monitored room (22±4° C.) in an animal unit. Animals were equilibrated under standard animal house conditions for at least 72 hours prior to use. The health status of the animals was monitored throughout this period and the suitability of each animal for experimental use was assessed prior to study start. • Housing Animals were housed in groups of 3 per cage in a controlled room, to ensure correct temperature, humidity and 12 hour light/dark cycle for the duration of the study. • Diet: Irradiated pellet diet and water was available ad libitum throughout the holding, acclimatisation and post-dose periods. Compound and Reagents • H460cell line (ATCC HTB-177). • Phosphate buffered saline (“PBS”). • Test compounds: Au—Pt bi-metallic nanocrystal suspensions. • Positive control compound: cisplatin. • Negative control compound: drinking water. Treatment Groups and Dosages • Negative Control Group 1: Days 0-21, given normal drinking water. • Positive Control Group 2: Days 0-21, given normal drinking water; and given a one-time cisplatin dose of 8 mg/kg by intraperitoneal injection (“IP”) on day 0. • Treatment Group 3-5: Days 0-21, given test compounds as their drinking water. Protocol A: Preparation and Growth of Donor Tumors
as §2

[3] = HCT116 xenograft, oral, versus Group 1 (Control)
[4] = tumor doubling time, HCT116 xenograft, oral
[5] = tumor doubling time, H460 xenograft, oral

N.N.[Cl][Pt][Cl] [cisplatin]
Growth Delay (HCT116 tumors [1]; [3]): 1.7 days
Maximum % Weight Loss (HCT116 tumors [1]; mouse, in vivo, po): 5%
Maximum % Weight Loss, day (d) of maximum (HCT116 tumors [1]; mouse, in vivo, po): 7 days
Mean Time to RTV2 (HCT116 tumors [1]; [4]): 5.2 days
Median Time to RTV2 (HCT116 tumors [1]; [4]): 5.2 days
Growth Delay (HCT116 tumors [2]; [3]): 0.9 days
Maximum % Weight Loss (HCT116 tumors [2]; mouse, in vivo, po): 5%
Maximum % Weight Loss, day (d) of maximum (HCT116 tumors [2]; mouse, in vivo, po): 2 days
Mean Time to RTV2 (HCT116 tumors [2]; [4]): 3.9 days
Median Time to RTV2 (HCT116 tumors [2]; [4]): 3.5 days
Growth Delay (H460 tumors; H460 xenograft, oral, versus Group 1 (Control)): 2.5 days
Maximum % Weight Loss (H460 tumors; mouse, in vivo, po): 6%
Maximum % Weight Loss, day (d) of maximum (H460 tumors; mouse, in vivo, po): 3 days
Mean Time to RTV2 (H460 tumors; [5]): 5.0 days
Median Time to RTV2 (H460 tumors; [5]): 5.0 days
